From paper PMC8379256, “A xanthene derivative, DS20060511, attenuates glucose intolerance by inducing skeletal muscle-specific GLUT4 translocation in mice” (Communications Biology, 2021)
Where “and” joins values, the source holds several entries; their conditions need not be identical. Identical values can stand only once.

Key:
C57BL/6 mice = experiment: Oral glucose tolerance test (GTT) in C57BL/6 mice: blood glucose and plasma insulin; format: in vivo, mouse; set-up: Blood glucose AUC: unit not given here
Experimental: Fig. 2 Treatment with DS20060511 decreases the blood glucose levels via inducing GLUT4 translocation and increasing skeletal muscle glucose uptake. a, b Blood glucose levels after treatment with DS20060511 (30 mg kg^−1) in C57BL/6 mice that had received continued access to food (a) and mice that had been denied access to food overnight (b) (n = 8). Values shown are means ± SEM. **P < 0.01 vs. 0 min by one-way ANOVA followed by Dunnett’s test. c Blood glucose and plasma insulin levels during oral GTT in the C57BL/6 mice (n = 5–6). The mice received oral administration of vehicle or DS20060511 at the indicated dose, 15 min prior to glucose administration (1.5 g kg^−1). Values shown are means ± SEM. *P < 0.05, **P < 0.01 vs. vehicle by one-way ANOVA followed by Williams’ test. d [^3H]-2-DG uptake in the soleus muscle, gastrocnemius muscle (Gastro.), heart, and white adipose tissue (WAT) at 60 min during the intraperitoneal GTT in the C57BL/6 mice (n = 3). The mice received oral administration of vehicle or DS20060511 (30 mg kg^−1), 15 min prior to glucose administration (1 g kg^−1 glucose containing [^3H]-2-DG). […] Uncropped blots for e can be found in Supplementary Fig. 6.
Mice that had been denied access to food overnight received the indicated oral dose of DS20060511 or vehicle 15 min prior to the glucose load (1.5 g kg^−1, except for eNOS-knockout mice, which received 3.0 g kg^−1). Then, after the oral glucose load, the blood glucose levels were measured using Glutest Every in samples obtained from the tail vein at the indicated timepoints. Plasma insulin concentrations were also measured with an ELISA kit (Morinaga Institute of Biological Science, Yokohama, Japan) in blood samples collected from the tail vein at the indicated timepoints.

AMPK = AMPK (Thr172) phosphorylation in isolated muscles with or without electrical stimulation; set-up: species or system mouse; settings: isolated skeletal muscle; 10 μM DS20060511; Fig. 6b
db/db mice = experiment: Repeated (28-day) DS20060511 treatment of db/db mice; format: in vivo, mouse; settings: 28-day repeated-dose study in db/db mice
Experimental: db/db mice were acclimatized to a 6 h restricted feeding pattern from 10 am to 4 pm prior to the start of the experiment. For 28 days from 6 weeks of age, the mice received oral administration of 10 mg kg^−^1 of DS20060511 or vehicle once a day, 15 min prior to their feeding. On day 1 and day 28, the blood glucose levels were measured between 10 am to 4 pm. Blood glucose levels were measured using Glutest Every in blood samples collected from the tail vein. Daily food intake was monitored throughout the study, and the body weight, blood glucose, and plasma insulin were measured on day 1 and day 28. The hemoglobin A1c (HbA1c) level was also measured with a HLC-723G8 Automated Glycohemoglobin Analyzer on day 1 and day 28 (Tosoh, Tokyo, Japan). The triceps surae muscle (skeletal muscle), heart, epididymal WAT, and liver were excised immediately after euthanasia, and the tissue weights were measured on day 29. The glycogen contents of the muscle, heart, and liver were measured as described previously,[52] with some modifications. In brief, each tissue sample (50–100 mg) was weighed and boiled in 0.75 mL of 8 M KOH. After cooling, 0.25 mL of 1 M Na2SO4, followed by 2 mL of 99.5% ethanol, was added to precipitate the glycogen. The samples were centrifuged and the glycogen precipitates were dissolved in distilled water. Glycogen was degraded to glucose by treatment with amyloglucosidase (Sigma–Aldrich) at 55 °C for 60 min, and the glucose concentration was determined with Glucose CII Test Wako (FUJIFILM Wako Pure Chemical).

SMILES: COc1ccc2c(C)c(C(=O)O)ccc2c1C1C2=C(CC(C)(C)CC2=O)OC2=C1C(=O)CC(C)(C)C2 [DS20060511]
- insulin secretion during oral GTT (in words) (C57BL/6 mice; all DS20060511-treated groups, Fig. 2c): significantly decreased
- Blood glucose AUC (C57BL/6 mice; oral GTT, 1 mg/kg): 366 and 401 and 377 and 335 and 390 and 419
- Plasma insulin AUC (C57BL/6 mice; oral GTT, 1 mg/kg): 0.29 and 0.49 and 0.32 and 0.27 and 0.43
- Blood glucose (C57BL/6 mice; oral GTT, 1 mg/kg po at -15 min, -15 min, 1 mg/kg): 83 mg/dL and 81 mg/dL and 91 mg/dL and 77 mg/dL and 94 mg/dL and 72 mg/dL
- Blood glucose (C57BL/6 mice; oral GTT, 1 mg/kg, 0 min): 104 mg/dL and 115 mg/dL and 92 mg/dL and 106 mg/dL and 89 mg/dL
- Blood glucose (C57BL/6 mice; oral GTT, 1 mg/kg, 15 min): 270 mg/dL and 311 mg/dL and 217 mg/dL and 301 mg/dL
- Blood glucose (C57BL/6 mice; oral GTT, 1 mg/kg, 30 min): 242 mg/dL and 212 mg/dL and 228 mg/dL and 193 mg/dL and 199 mg/dL and 254 mg/dL
- Plasma insulin (C57BL/6 mice; oral GTT, 1 mg/kg, 30 min): 0.30 ng/mL and 0.44 ng/mL and 0.25 ng/mL and 0.34 ng/mL and 0.42 ng/mL and 0.33 ng/mL
- Blood glucose (C57BL/6 mice; oral GTT, 1 mg/kg, 60 min): 171 mg/dL and 217 mg/dL and 165 mg/dL and 153 mg/dL and 199 mg/dL and 230 mg/dL
- Blood glucose (C57BL/6 mice; oral GTT, 1 mg/kg, 90 min): 118 mg/dL and 159 mg/dL and 127 mg/dL and 138 mg/dL and 142 mg/dL and 153 mg/dL
- Blood glucose (C57BL/6 mice; oral GTT, 1 mg/kg, 120 min): 106 mg/dL and 119 mg/dL and 109 mg/dL and 124 mg/dL and 132 mg/dL
- Blood glucose AUC (C57BL/6 mice; oral GTT, 3 mg/kg): 360 and 323 and 398 and 316 and 320 and 374
- Plasma insulin AUC (C57BL/6 mice; oral GTT, 3 mg/kg): 0.28 and 0.40 and 0.34 and 0.29 and 0.31
- Blood glucose (C57BL/6 mice; oral GTT, 3 mg/kg, 0 min): 104 mg/dL and 117 mg/dL and 90 mg/dL
- Blood glucose (C57BL/6 mice; oral GTT, 3 mg/kg, 15 min): 263 mg/dL and 240 mg/dL and 249 mg/dL and 228 mg/dL
- Plasma insulin (C57BL/6 mice; oral GTT, 3 mg/kg, 15 min): 0.51 ng/mL and 0.58 ng/mL and 0.65 ng/mL and 0.53 ng/mL
- Blood glucose (C57BL/6 mice; oral GTT, 3 mg/kg, 30 min): 228 mg/dL and 164 mg/dL and 233 mg/dL and 181 mg/dL
- Plasma insulin (C57BL/6 mice; oral GTT, 3 mg/kg, 30 min): 0.28 ng/mL and 0.30 ng/mL and 0.37 ng/mL and 0.39 ng/mL and 0.26 ng/mL
- Blood glucose (C57BL/6 mice; oral GTT, 3 mg/kg, 60 min): 161 mg/dL and 142 mg/dL and 202 mg/dL and 152 mg/dL
- Blood glucose (C57BL/6 mice; oral GTT, 3 mg/kg, 90 min): 132 mg/dL and 126 mg/dL and 148 mg/dL and 100 mg/dL
- Blood glucose (C57BL/6 mice; oral GTT, 3 mg/kg, 120 min): 105 mg/dL and 122 mg/dL and 129 mg/dL
- Blood glucose (C57BL/6 mice; oral GTT, 3 mg/kg, -15 min): 82 mg/dL and 84 mg/dL and 94 mg/dL and 79 mg/dL
- Blood glucose AUC (C57BL/6 mice; oral GTT, 10 mg/kg): 294 and 310 and 309 and 270 and 269
- Plasma insulin AUC (C57BL/6 mice; oral GTT, 10 mg/kg): 0.29 and 0.30 and 0.32 and 0.43 and 0.41
- Plasma insulin (C57BL/6 mice; oral GTT, 10 mg/kg, 15 min): 0.51 ng/mL and 0.50 ng/mL and 0.54 ng/mL and 0.40 ng/mL and 0.68 ng/mL
- Plasma insulin (C57BL/6 mice; oral GTT, 10 mg/kg, 30 min): 0.35 ng/mL and 0.28 ng/mL and 0.43 ng/mL and 0.31 ng/mL and 0.46 ng/mL
- Blood glucose AUC (C57BL/6 mice; oral GTT, 30 mg/kg): 258 and 200 and 219 and 225 and 241
- Plasma insulin AUC (C57BL/6 mice; oral GTT, 30 mg/kg): 0.21 and 0.30 and 0.35 and 0.22 and 0.34
- Plasma insulin (C57BL/6 mice; oral GTT, 30 mg/kg, 15 min): 0.46 ng/mL and 0.58 ng/mL and 0.48 ng/mL and 0.34 ng/mL
- blood glucose levels after oral glucose load (in words) (C57BL/6 mice; oral GTT, given prior to glucose load, Fig. 2c): dose-dependent suppression of rise of the blood glucose levels
- AMPK phosphorylation level (AMPK): no such change was observed
- visible sign of toxicity (db/db mice): did not find any visible sign of toxicity
